In patent publication US7816328B2, “Substituted fused heterocyclic C-glycosides” (Janssen Pharmaceutica NV, priority 2003, dated 2010):

What was measured:
human SGLT2 = target: T1, human SGLT2 (Homo sapiens, UniProt P31639); experiment: Cell-based assay for sodium-dependent glucose transport (14C-AMG uptake), CHO-K1 cells stably expressing human SGLT2; settings: Na-dependent 14C-AMG uptake; for IC50: read-out: CHOK-SGLT2 IC50; for inhibition at 10 µM: read-out: CHOK-SGLT2 % Inh at 10 uM
T1 construct: expressed in transfected cells; host or cells: CHO-K1
T1 sequence (P31639 1-672): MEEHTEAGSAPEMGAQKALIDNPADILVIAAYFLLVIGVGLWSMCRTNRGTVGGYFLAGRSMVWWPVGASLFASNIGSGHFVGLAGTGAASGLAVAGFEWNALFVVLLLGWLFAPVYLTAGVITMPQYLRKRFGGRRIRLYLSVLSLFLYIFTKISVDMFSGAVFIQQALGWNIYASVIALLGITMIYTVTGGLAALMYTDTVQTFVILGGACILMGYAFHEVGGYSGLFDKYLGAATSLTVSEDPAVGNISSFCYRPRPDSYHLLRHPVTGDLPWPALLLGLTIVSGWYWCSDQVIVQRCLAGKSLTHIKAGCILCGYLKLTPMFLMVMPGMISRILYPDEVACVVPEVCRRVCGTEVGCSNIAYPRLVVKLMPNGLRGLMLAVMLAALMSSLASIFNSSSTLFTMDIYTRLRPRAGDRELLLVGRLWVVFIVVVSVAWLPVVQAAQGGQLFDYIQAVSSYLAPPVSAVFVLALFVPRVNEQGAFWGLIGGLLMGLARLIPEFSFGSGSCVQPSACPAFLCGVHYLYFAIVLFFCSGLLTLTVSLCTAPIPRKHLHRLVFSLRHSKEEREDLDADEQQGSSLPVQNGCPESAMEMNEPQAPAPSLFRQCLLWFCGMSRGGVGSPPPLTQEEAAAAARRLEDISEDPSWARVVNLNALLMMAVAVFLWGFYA
Description: (§1) Cloning of the human SGLT1 and human SGLT2 cDNAs and construction of the mammalian expression vector: The human SGLT1 cDNA (Genbank M24847) was cloned from human small intestine. Human SGLT2 cDNA (Genbank M95549) was cloned from human kidney. Both full cDNAs were subcloned into pcDNA and sequenced to verify the integrity of the construct.
(§2) Generation of CHO-K1 cells stably expressing human SGLT1 or human SGLT2: Transfection of CHO-K1 cells was performed using DMRIE-C reagent (Life Technologies, Gaithersburg, Md.). Transfectants were then selected in the presence of the antibiotic G418 (Gibco-BRL, Grand Island, N.Y.) at 400 μg/ml. Individual clones were then characterized using the functional assay described below.
(§3) Cell-based assay for sodium-dependent glucose transport: Cell lines stably expressing human SGLT1 or SGLT2 were then used for functional analysis of Na+-dependent glucose uptake. Briefly, cells were plated at a density of 65,000 cells per well in a 96-well plate and allowed to grow for 48 hours. Cells were subsequently washed one time with Assay Buffer (50 mM HEPES pH 7.4, 20 mM Tris, 5 mM KCl, 1 mM MgCl2, 1 mM CaCl2 and 137 mM NaCl) and treated with compound in the absence or presence of NaCl for 15 minutes. Cells were then labeled with ^14C-α-methylglucopyranoside (AMG, Sigma, St. Louis, Mo.) a non-metabolizable glucose analog specific for sodium-dependent glucose transporters as previously described (Peng, H. and Lever J. E. Post-transcriptional regulation of Na^+/glucose cotransporter (SGLT1) gene expression in LLC-PK1 cells. J Biol Chem 1995; 270:20536-20542). After 2 hours the labelled cells were washed three times with ice-cold PBS. After aspiration, cells were solubilized using Microscint 20 (Packard, Meriden, Conn.) and Na-dependent ^14C-AMG uptake was quantified by measuring radioactivity.
(§4) Plates were counted in a TopCount (Packard, Meriden, Conn.). Results are reported as the % inhibition or IC50 value from a representative experiment. Variability for the functional assay was typically within 20%.

human SGLT1 = target: T2, human SGLT1 (Homo sapiens, UniProt P13866); experiment: Cell-based assay for sodium-dependent glucose transport (14C-AMG uptake), CHO-K1 cells stably expressing human SGLT1; settings: Na-dependent 14C-AMG uptake
T2 construct: expressed in transfected cells; host or cells: CHO-K1
T2 sequence (P13866 1-664): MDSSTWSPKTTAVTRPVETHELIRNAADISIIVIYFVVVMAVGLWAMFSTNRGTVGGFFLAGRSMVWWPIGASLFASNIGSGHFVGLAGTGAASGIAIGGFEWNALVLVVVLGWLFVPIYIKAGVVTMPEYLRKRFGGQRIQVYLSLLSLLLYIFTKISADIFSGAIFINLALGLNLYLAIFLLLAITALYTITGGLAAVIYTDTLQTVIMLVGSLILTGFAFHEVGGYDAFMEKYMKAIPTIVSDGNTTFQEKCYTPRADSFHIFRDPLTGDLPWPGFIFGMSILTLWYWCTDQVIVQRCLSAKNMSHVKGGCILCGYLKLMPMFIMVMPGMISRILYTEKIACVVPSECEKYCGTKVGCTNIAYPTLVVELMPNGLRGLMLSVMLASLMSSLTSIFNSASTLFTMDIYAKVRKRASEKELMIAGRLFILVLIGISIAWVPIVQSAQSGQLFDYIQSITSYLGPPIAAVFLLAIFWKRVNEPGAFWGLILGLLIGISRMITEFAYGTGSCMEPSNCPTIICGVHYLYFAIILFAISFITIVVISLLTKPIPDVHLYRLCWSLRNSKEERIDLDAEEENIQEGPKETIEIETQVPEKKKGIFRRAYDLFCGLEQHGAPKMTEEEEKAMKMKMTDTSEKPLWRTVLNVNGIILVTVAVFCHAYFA
Description: as §1, §2, §3, §4

Row | Structure (SMILES) | IC50 (human SGLT2) [nM] | CHOK-SGLT1 IC50 (uM) (human SGLT1) | inhibition at 10 µM (human SGLT2) [%]
1 | CCc1ccc(Cc2c[nH]c3ccc([C@@H]4O[C@H](CO)[C@@H](O)[C@H](O)[C@H]4O)cc23)cc1 [Example 1, 3-(4-Ethylbenzyl)-5-(β-D-glucopyranosyl)-1H-indole] | 132 ± 24 | inactive | 
2 | COc1ccc(Cc2c[nH]c3ccc([C@@H]4O[C@H](CO)[C@@H](O)[C@H](O)[C@H]4O)cc23)cc1 [Example 2, 5-(β-D-Glucopyranosyl)-3-(4-methoxybenzyl)-1H-indole] | 1390 ± 67 | inactive | 
3 | COc1ccc(CCc2c[nH]c3ccc([C@@H]4O[C@H](CO)[C@@H](O)[C@H](O)[C@H]4O)cc23)cc1 [Example 3, 5-(β-D-Glucopyranosyl)-3-[2-(4-methoxyphenyl)-ethyl]-1H-indole] |  | inactive | 60
4 | CCc1ccc(Cc2c[nH]c3cccc([C@@H]4O[C@H](CO)[C@@H](O)[C@H](O)[C@H]4O)c23)cc1 [Example 4, 3-(4-Ethylbenzyl)-4-(β-D-glucopyranosyl)-1H-indole] |  | inactive | 12
